The values below come from ChEMBL document CHEMBL3414495, “Multi-target tacrine-coumarin hybrids: cholinesterase and monoamine oxidase B inhibition properties against Alzheimer's disease” (Eur J Med Chem, 2015).

pIC50: −log10 of the molar value. A value given as a limit tells only on which side of the number the result lay.

Data set [1] addresses T1, Amine oxidase [flavin-containing] B (Homo sapiens, UniProt P27338).
T1 sequence (P27338 whole entry): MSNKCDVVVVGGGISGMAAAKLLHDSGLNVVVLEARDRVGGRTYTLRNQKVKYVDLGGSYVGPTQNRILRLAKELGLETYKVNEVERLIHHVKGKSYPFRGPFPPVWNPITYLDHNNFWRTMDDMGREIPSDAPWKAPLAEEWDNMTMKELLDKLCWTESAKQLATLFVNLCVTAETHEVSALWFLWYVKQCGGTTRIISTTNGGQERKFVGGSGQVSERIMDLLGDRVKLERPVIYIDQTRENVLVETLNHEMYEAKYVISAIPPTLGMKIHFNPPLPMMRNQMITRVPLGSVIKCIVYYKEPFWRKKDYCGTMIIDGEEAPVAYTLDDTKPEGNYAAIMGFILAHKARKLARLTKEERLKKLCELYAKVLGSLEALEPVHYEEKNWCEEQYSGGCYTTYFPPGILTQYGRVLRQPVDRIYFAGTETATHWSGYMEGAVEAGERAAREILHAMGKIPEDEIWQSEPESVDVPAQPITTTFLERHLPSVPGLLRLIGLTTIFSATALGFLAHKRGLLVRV
The data set can be described thus: Inhibition of MAO-B (unknown origin).

The target in data set [2] is T1, Amine oxidase [flavin-containing] B.
Description: Inhibition of human MAO-B using p-tyramine as substrate assessed as H2O2 production by amplex red assay
Data set [3] deals with T2, Amine oxidase [flavin-containing] A (Homo sapiens, UniProt P21397).
T2 sequence (P21397 whole entry): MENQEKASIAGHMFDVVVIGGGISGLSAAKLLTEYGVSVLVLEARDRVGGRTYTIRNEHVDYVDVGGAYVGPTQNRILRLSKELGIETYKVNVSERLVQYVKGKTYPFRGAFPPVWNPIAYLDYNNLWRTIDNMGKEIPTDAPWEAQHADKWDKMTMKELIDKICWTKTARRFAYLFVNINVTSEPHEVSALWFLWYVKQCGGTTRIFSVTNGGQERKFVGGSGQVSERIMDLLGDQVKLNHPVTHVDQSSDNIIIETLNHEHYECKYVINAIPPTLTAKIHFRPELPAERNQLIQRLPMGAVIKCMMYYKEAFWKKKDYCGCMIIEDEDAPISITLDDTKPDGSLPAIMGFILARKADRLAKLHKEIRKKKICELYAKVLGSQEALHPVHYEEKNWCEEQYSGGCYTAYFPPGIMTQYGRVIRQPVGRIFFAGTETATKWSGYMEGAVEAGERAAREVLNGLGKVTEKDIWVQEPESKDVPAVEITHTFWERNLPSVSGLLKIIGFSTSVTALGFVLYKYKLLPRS
Kind of data set: Inhibition of human MAO-A using p-tyramine as substrate assessed as H2O2 production at 200 uM by amplex red assay.

The species named for the next data set is Homo sapiens. The data set can be described thus: Selectivity index, ratio of IC50 for human MAO-A to IC50 for human MAO-B.
Data set [4] concerns the target Acetylcholinesterase (Electrophorus electricus, UniProt O42275).
Description: Inhibition of electric eel AChE using acetylthiocholine iodide as substrate incubated for 6 mins prior to substrate addition measured after 60 to 180 secs by Ellman method
The target in data set [5] is Cholinesterase (Equus caballus, UniProt P81908).
Cholinesterase (Equus caballus, UniProt P81908), sequence (P81908 whole entry): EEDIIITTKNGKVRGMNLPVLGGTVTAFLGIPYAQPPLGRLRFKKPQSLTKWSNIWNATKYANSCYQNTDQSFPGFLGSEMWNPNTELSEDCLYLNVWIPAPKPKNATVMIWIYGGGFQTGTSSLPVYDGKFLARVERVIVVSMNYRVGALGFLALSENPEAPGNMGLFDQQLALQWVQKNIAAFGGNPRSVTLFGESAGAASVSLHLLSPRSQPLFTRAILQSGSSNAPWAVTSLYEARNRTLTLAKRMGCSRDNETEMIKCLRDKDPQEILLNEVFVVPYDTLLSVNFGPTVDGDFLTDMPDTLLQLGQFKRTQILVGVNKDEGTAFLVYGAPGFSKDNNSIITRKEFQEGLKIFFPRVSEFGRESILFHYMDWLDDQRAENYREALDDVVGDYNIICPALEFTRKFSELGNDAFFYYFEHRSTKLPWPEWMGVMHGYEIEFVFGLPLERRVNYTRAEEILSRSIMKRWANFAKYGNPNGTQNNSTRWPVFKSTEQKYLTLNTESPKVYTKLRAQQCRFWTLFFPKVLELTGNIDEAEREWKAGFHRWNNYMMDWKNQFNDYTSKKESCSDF
Description: Inhibition of horse serum BuChE using S-butyrylthiocholine iodide as substrate incubated for 6 mins prior to substrate addition measured after 60 to 180 secs by Ellman method
Another data set in a line: in vitro. Particulars: PAMPA. (In general: PAMPA measures passive passage across an artificial lipid membrane.)
The target in data set [6] is T2, Amine oxidase [flavin-containing] A. The data set can be described thus: Inhibition of human MAO-A using p-tyramine as substrate assessed as H2O2 production by amplex red assay.
For data set [7], the target named is Acetylcholinesterase (Homo sapiens, UniProt P22303). Kind of data set: Inhibition of human AChE using acetylthiocholine iodide as substrate incubated for 6 mins prior to substrate addition measured after 60 to 180 secs by Ellman method. (In Ellman's method for cholinesterases, released thiocholine reacts with DTNB.)
Acetylcholinesterase (Homo sapiens, UniProt P22303), sequence (P22303 whole entry): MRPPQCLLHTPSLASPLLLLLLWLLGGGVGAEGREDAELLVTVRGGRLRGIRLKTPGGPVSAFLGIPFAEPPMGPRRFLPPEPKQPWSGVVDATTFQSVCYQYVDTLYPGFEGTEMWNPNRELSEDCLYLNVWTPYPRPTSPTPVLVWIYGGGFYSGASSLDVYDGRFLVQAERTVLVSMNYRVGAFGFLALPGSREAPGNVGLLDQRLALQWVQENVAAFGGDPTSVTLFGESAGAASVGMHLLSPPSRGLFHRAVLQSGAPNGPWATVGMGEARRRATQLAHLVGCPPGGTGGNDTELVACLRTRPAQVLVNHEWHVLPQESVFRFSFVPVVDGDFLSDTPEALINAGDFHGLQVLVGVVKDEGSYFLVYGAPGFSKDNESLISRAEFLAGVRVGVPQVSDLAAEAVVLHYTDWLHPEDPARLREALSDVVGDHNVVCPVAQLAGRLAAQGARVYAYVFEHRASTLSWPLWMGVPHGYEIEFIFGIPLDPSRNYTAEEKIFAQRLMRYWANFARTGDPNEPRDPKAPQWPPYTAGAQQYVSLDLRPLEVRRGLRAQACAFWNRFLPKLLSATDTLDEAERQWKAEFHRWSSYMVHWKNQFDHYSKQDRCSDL
The target of data set [8] is Cholinesterase (Homo sapiens, UniProt P06276). The data set can be described thus: Inhibition of human BuChE using S-butyrylthiocholine iodide as substrate incubated for 6 mins prior to substrate addition measured after 60 to 180 secs by Ellman method.
Cholinesterase (Homo sapiens, UniProt P06276), sequence (P06276 whole entry): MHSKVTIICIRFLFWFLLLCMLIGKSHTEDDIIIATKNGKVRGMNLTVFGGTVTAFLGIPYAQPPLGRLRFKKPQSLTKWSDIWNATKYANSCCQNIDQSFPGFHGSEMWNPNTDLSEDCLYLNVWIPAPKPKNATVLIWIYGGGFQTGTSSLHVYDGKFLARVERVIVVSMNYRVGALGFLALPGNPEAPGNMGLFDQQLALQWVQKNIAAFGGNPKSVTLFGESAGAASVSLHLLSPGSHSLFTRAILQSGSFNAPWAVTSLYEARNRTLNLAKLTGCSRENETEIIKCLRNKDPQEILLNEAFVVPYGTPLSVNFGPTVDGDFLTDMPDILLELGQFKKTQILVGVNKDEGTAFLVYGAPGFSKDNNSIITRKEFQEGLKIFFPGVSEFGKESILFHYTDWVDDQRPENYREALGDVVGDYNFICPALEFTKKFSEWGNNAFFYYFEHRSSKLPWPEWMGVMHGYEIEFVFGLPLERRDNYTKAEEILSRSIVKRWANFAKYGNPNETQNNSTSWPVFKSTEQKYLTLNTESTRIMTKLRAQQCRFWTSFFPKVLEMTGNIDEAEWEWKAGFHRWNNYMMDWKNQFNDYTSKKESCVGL
Data set [9] addresses T2, Amine oxidase [flavin-containing] A. The data set can be described thus: Inhibition of human MAO-A using p-tyramine as substrate assessed as H2O2 production at 100 uM by amplex red assay.
Data set [10] concerns the target T1, Amine oxidase [flavin-containing] B. The data set can be described thus: Inhibition of human MAO-B using p-tyramine as substrate assessed as H2O2 production at 200 uM by amplex red assay.

In general, pIC50 refers to the negative decadic logarithm of the IC50, by convention in mol/L. One may read the Papp as a coefficient for how fast a substance crosses the barrier. A higher Papp goes with fast passage.

Acetylcholinesterase (Electrophorus electricus, UniProt O42275), sequence (O42275 whole entry): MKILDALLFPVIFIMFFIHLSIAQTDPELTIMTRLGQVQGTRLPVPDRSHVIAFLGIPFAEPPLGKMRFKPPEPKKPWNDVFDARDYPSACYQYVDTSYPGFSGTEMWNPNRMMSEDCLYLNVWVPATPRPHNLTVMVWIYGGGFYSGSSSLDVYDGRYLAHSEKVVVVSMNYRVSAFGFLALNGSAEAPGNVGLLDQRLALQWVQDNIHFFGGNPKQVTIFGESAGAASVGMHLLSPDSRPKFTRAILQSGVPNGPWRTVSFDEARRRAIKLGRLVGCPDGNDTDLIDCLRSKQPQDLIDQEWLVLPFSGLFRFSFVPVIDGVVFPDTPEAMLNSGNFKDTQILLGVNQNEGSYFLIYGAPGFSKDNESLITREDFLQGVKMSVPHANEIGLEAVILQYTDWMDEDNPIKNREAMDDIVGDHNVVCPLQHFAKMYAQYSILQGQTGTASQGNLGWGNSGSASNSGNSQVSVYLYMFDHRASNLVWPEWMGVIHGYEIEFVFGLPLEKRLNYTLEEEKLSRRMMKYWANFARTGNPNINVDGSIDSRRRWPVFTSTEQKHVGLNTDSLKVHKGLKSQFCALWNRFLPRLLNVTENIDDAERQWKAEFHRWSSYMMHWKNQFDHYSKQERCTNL
Description for in vitro: Permeability of the compound after 16 hrs by PAMPA

`Cc1c(C)c2ccc(OCc3nnc(C(C)C)s3)cc2oc1=O` [ATIBEPRONE] gave a pIC50 in [1] of 9.05.

Regarding `O=c1ccc2ccc(OCCCN3CCN(CCCNc4c5c(nc6ccccc46)CCCC5)CC3)cc2o1`, the figures for the pIC50 (in data set [2]; on Acetylcholinesterase [4]; at Cholinesterase [5]) were 5.65, 7.62 and 7.50, respectively. Further, the “inhibition (INH)” value in [3] is listed as “Not Active”. Further, in the data set filed under Homo sapiens, the Ratio IC50 was above 88.5. This compound also came in with a Papp at 16 h in the data set “in vitro” of 1.45 ×10⁻⁶ cm/s.

`Cc1c(Cl)c(=O)oc2cc(OCCN3CCN(CCCNc4c5c(nc6ccccc46)CCCC5)CC3)ccc12`: the pIC50 was 4.28 in data set [6]; 6.15 in data set [2]; 7.61 at Acetylcholinesterase [7]; 6.91 against Cholinesterase [8]; 7.50 on Acetylcholinesterase [4]; 7.14 on Cholinesterase [5]. The Ratio IC50 in the data set listed under Homo sapiens stood at 75.7. In the data set “in vitro”, this compound returned a Papp at 16 h of 5.37 ×10⁻⁶ cm/s.

Consider `O=c1cc(-c2ccccc2)c2ccc(OCCN3CCN(CCCNc4c5c(nc6ccccc46)CCCC5)CC3)cc2o1`, for which the “inhibition (INH)” value in data set [9] and in data set [10] was “Not Active” each time. Further, the results for the pIC50 against Acetylcholinesterase [4] and on Cholinesterase [5] were 6.71 and 6.67, respectively. The Papp at 16 h in “in vitro” is 7.59 ×10⁻⁶ cm/s.

Consider `O=c1ccc2ccc(OCCCCN3CCN(CCCNc4c5c(nc6ccccc46)CCCC5)CC3)cc2o1`, for which the pIC50 was 5.46 in data set [2], 7.44 at Acetylcholinesterase [4] and 7.64 at Cholinesterase [5]. Further, the “inhibition (INH)” value in data set [3] is given as “Not Active”. In addition, in the data set listed under Homo sapiens, the Ratio IC50 is above 58. This compound also yielded a Papp at 16 h in the data set “in vitro” of 2.04 ×10⁻⁶ cm/s.

Take `O=c1oc2cc(OCCN3CCN(CCCNc4c5c(nc6ccccc46)CCCC5)CC3)ccc2c2c1CCCC2`: the pIC50 in [6] is 4.66; in data set [2] it was 5.82; against Acetylcholinesterase [4], 6.84; on Cholinesterase [5], 6.80. Further, in the data set listed under Homo sapiens, the Ratio IC50 turned out to be 14.4. In “in vitro”, this compound had a Papp at 16 h of 3.01 ×10⁻⁶ cm/s.

As for `O=c1ccc2ccc(OCCCCN3CCN(CCNc4c5c(nc6ccccc46)CCCC5)CC3)cc2o1`, the negative logarithm of the IC50 (pIC50) is 6.11 in data set [2], 7.04 on Acetylcholinesterase [4] and 7.68 against Cholinesterase [5]. In addition, the “inhibition (INH)” value in [3] was “Not Active”. The Ratio IC50 in the data set filed under Homo sapiens is above 256. In “in vitro”, the Papp at 16 h amounted to 5.23 ×10⁻⁶ cm/s.

Turning to `O=c1ccc2ccc(OCCN3CCN(CCNc4c5c(nc6ccccc46)CCCC5)CC3)cc2o1`, the pIC50 in data set [2] is 5.34; on Acetylcholinesterase [4] it was 7.16; against Cholinesterase [5], 7.36. Moreover, in data set [3], the “inhibition (INH)” value was “Not Active”. Besides, the Ratio IC50 in the data set listed under Homo sapiens is above 43.9. The same compound returned a Papp at 16 h in “in vitro” of 2.13 ×10⁻⁶ cm/s.

Regarding `O=c1ccc2ccc(OCCCCCN3CCN(CCNc4c5c(nc6ccccc46)CCCC5)CC3)cc2o1`, the pIC50 in data set [6] is 5.04; in data set [2], 5.80; against Acetylcholinesterase [4], 6.86; against Cholinesterase [5] it was 7.49. Further, the Ratio IC50 in the data set filed under Homo sapiens was determined as 5.77. The compound further gave a Papp at 16 h in the data set “in vitro” of 6.5 ×10⁻⁶ cm/s.

Consider `O=c1cc(C(F)(F)F)c2ccc(OCCN3CCN(CCCNc4c5c(nc6ccccc46)CCCC5)CC3)cc2o1`, for which the negative logarithm of the IC50 (pIC50) in [2] is 4.54; on Acetylcholinesterase [4], 7.17; against Cholinesterase [5], 6.83. Moreover, the “inhibition (INH)” value in data set [9] is “Not Active”. In the data set filed under Homo sapiens, the Ratio IC50 is above 3.48. In “in vitro”, the apparent permeability (Papp) at 16 h turned out to be 5.58 ×10⁻⁶ cm/s.

With `O=c1ccc2ccc(OCCN3CCN(CCCNc4c5c(nc6ccccc46)CCCC5)CC3)cc2o1`, the results for the pIC50 (in [2]; on Acetylcholinesterase [4]; against Cholinesterase [5]) were 5.70, 7.75 and 7.42, respectively. Further, the “inhibition (INH)” value in [3] is recorded as “Not Active”. Further, the Ratio IC50 in the data set filed under Homo sapiens was above 100. Moreover, the Papp at 16 h in the data set “in vitro” amounted to 1.21 ×10⁻⁶ cm/s.

For `O=c1ccc2ccc(OCCCCCCN3CCN(CCNc4c5c(nc6ccccc46)CCCC5)CC3)cc2o1`, the pIC50 in [6] is 5.22; in data set [2], 5.28; against Acetylcholinesterase [4] it was 6.48; against Cholinesterase [5], 7.23. Moreover, the Ratio IC50 in the data set filed under Homo sapiens was 1.14. Besides, in the data set “in vitro”, the Papp at 16 h turned out to be 6.96 ×10⁻⁶ cm/s.

Regarding `COc1cc(=O)oc2cc(OCCN3CCN(CCCNc4c5c(nc6ccccc46)CCCC5)CC3)ccc12`, the pIC50 in data set [2] is 5.24; on Acetylcholinesterase [4], 7.35; at Cholinesterase [5], 6.94. Besides, the “inhibition (INH)” value in data set [9] was “Not Active”. For the same compound, the Ratio IC50 in the data set listed under Homo sapiens is above 17.3. The same compound came in with a Papp at 16 h in the data set “in vitro” of 1.96 ×10⁻⁶ cm/s.

Take `O=c1ccc2ccc(OCCCN3CCN(CCNc4c5c(nc6ccccc46)CCCC5)CC3)cc2o1`: the figures for the pIC50 (in [2]; against Acetylcholinesterase [4]; at Cholinesterase [5]) were 5.63, 7.32 and 7.79, respectively. The “inhibition (INH)” value in data set [3] was “Not Active”. For the same compound, in the data set filed under Homo sapiens, the Ratio IC50 is above 84.4. This compound also came in with a Papp at 16 h in “in vitro” of 3.43 ×10⁻⁶ cm/s.

For `O=c1ccc2ccc(OCCCCCCN3CCN(CCCNc4c5c(nc6ccccc46)CCCC5)CC3)cc2o1`, the negative logarithm of the IC50 (pIC50) in data set [6] was 5.22; in data set [2] it was 5.02; against Acetylcholinesterase [4], 7.18; at Cholinesterase [5], 7.41. Besides, the Ratio IC50 in the data set listed under Homo sapiens is 0.64. Also, the Papp at 16 h in the data set “in vitro” is 3.4 ×10⁻⁶ cm/s.

Take `Nc1cc(=O)oc2cc(OCCN3CCN(CCCNc4c5c(nc6ccccc46)CCCC5)CC3)ccc12`: the pIC50 in data set [2] is 4.42; against Acetylcholinesterase [4], 7.41; against Cholinesterase [5], 7.15. Besides, the “inhibition (INH)” value in data set [9] was “Not Active”. Also, in the data set filed under Homo sapiens, the Ratio IC50 is above 2.63. In the data set “in vitro”, the Papp at 16 h amounted to 0.78 ×10⁻⁶ cm/s.

`Cc1cc2ccc(OCCN3CCN(CCCNc4c5c(nc6ccccc46)CCCC5)CC3)cc2oc1=O`: the results for the pIC50 (in data set [2]; on Acetylcholinesterase [4]; at Cholinesterase [5]) were 6.27, 7.25 and 7.26, respectively. Further, in data set [9], the “inhibition (INH)” value is listed as “Not Active”. In addition, in the data set filed under Homo sapiens, the Ratio IC50 is above 185. Also, the Papp at 16 h in “in vitro” amounted to 2.95 ×10⁻⁶ cm/s.

Consider `O=c1ccc2ccc(OCCCCCN3CCN(CCCNc4c5c(nc6ccccc46)CCCC5)CC3)cc2o1`, for which the pIC50 is 4.99 in data set [6], 5.64 in data set [2], 7.32 on Acetylcholinesterase [4] and 7.38 at Cholinesterase [5]. Also, the Ratio IC50 in the data set filed under Homo sapiens came to 4.52. Further, in “in vitro”, the Papp at 16 h amounted to 2.37 ×10⁻⁶ cm/s.

As to `Cc1cc(=O)oc2cc(OCCN3CCN(CCCNc4c5c(nc6ccccc46)CCCC5)CC3)ccc12`, the pIC50 is 4.18 in data set [6], 5.75 in data set [2], 7.41 against Acetylcholinesterase [4] and 7.29 on Cholinesterase [5]. The Ratio IC50 in the data set listed under Homo sapiens was found to be 37.7. For the same compound, the Papp at 16 h in “in vitro” worked out at 1.9 ×10⁻⁶ cm/s.

`CCOc1cc(=O)oc2cc(OCCN3CCN(CCCNc4c5c(nc6ccccc46)CCCC5)CC3)ccc12`: the pIC50 in data set [6] is 4.10; in [2] it was 4.59; against Acetylcholinesterase [4] it was 7.29; against Cholinesterase [5] it was 7.06. For the same compound, the Ratio IC50 in the data set filed under Homo sapiens was determined as 3.05. In “in vitro”, this compound registered a Papp at 16 h of 2.74 ×10⁻⁶ cm/s.
